Tests used:
[1] = test system: HeLa cells; assay: Luciferase activity in HeLa cells transfected with mRNA-lipoplexes in the presence of bioactive lipids (FIGS. 9A-9C, 9F); assay type: cell-based
Procedure: FIG. 9A is a graph illustrating luciferase activity in HeLa cells transfected with mRNA-lipoplexes at a dose of 50 ng mRNA in the presence of bioactive lipids (black) normalized to mRNA-lipoplex only control (red), which was set at 100%. Data represented as mean±SEM; n=3. […] FIG. 9B is a graph illustrating luciferase activity in HeLa cells transfected with mRNA-lipoplexes at a dose of 50 ng mRNA in the presence of varying concentrations of MK-571 (blue) relative to mRNA-lipoplex only control (red). Data represented as mean±SD; n=3. […] FIG. 9C is a graph illustrating luciferase activity in HeLa cells transfected with mRNA-lipoplexes at a dose of 50 ng mRNA in the presence of varying concentrations of Arachidonic Acid (blue) relative to mRNA-lipoplex only control (red). Data represented as mean±SD; n=3. […] FIG. 9F is a graph illustrating luciferase activity in HeLa cells transfected with mRNA-lipoplexes at a dose of 50 ng mRNA in the presence of varying concentrations of MK-571 or its analogues, Montelukast, Pranlukast, and Zafirlukast relative to mRNA-lipoplex only control. Data represented as mean±SD; n=3.

[2] = test system: HeLa cells; assay: Luciferase activity in HeLa cells transfected using LNPs with MK-571 (FIGS. 9D, 9E); assay type: cell-based; details: 24 hr pre-incubation with MK-571 (5 μM), increasing doses of mRNA
Procedure: FIG. 9D is a graph illustrating luciferase activity at increasing doses of mRNA in HeLa cells transfected using LNPs, with and without 24 hr pre-incubation with MK-571 (5 μM). Data represented as mean±SD; n=3.
FIG. 9E is a graph illustrating luciferase activity at increasing doses of mRNA in HeLa cells transfected using LNPs and MK-571 loaded LNPs. Data represented as mean±SD; n=3.

| Structure (SMILES) | luciferase activity (protein expression) relative to mRNA-lipoplex only control ([1]; 50 ng mRNA, varying concentrations) | protein expression relative to mRNA-lipoplex only control ([1]; 50 ng mRNA, concentration of 5 μM) | enhancement of protein expression over the control ([1]; mRNA-lipoplexes 50 ng mRNA, lipoplex only control set at 100%) | transfection (luciferase activity) using LNPs [2] |
| --- | --- | --- | --- | --- |
| CCCCC/C=C\C/C=C\C/C=C\C/C=C\CCCC(=O)O [Arachidonic Acid] | failed to elicit improvement in protein expression |  |  |  |
| CN(C)C(=O)CCSC(SCCC(=O)O)c1cccc(/C=C/c2ccc3ccc(Cl)cc3n2)c1 (stereo not shown) [MK-571] |  | doubling the protein expression | approximately 40% | able to enhance transfection at all doses of mRNA |

— patent publication US11969506B2, “Lipid nanoparticle formulation” (ModernaTX, Inc., priority 2017, dated 2024)
